Tests used:
[1] = pKa value was determined; format: physicochemical
[2] = target: Calcium-activated potassium channel subunit alpha-1 (Homo sapiens) (UniProt Q12791); assay: Maxi-K opening activity on cloned human (hSlo) large- conductance (BK) Ca(2+)-activated K+ channel expressed in Xenopus laevis oocytes at concentration of 20 uM; format: functional, cell-based; conditions: Oocyte
Sequence of Calcium-activated potassium channel subunit alpha-1 (Homo sapiens) (Q12791 whole entry): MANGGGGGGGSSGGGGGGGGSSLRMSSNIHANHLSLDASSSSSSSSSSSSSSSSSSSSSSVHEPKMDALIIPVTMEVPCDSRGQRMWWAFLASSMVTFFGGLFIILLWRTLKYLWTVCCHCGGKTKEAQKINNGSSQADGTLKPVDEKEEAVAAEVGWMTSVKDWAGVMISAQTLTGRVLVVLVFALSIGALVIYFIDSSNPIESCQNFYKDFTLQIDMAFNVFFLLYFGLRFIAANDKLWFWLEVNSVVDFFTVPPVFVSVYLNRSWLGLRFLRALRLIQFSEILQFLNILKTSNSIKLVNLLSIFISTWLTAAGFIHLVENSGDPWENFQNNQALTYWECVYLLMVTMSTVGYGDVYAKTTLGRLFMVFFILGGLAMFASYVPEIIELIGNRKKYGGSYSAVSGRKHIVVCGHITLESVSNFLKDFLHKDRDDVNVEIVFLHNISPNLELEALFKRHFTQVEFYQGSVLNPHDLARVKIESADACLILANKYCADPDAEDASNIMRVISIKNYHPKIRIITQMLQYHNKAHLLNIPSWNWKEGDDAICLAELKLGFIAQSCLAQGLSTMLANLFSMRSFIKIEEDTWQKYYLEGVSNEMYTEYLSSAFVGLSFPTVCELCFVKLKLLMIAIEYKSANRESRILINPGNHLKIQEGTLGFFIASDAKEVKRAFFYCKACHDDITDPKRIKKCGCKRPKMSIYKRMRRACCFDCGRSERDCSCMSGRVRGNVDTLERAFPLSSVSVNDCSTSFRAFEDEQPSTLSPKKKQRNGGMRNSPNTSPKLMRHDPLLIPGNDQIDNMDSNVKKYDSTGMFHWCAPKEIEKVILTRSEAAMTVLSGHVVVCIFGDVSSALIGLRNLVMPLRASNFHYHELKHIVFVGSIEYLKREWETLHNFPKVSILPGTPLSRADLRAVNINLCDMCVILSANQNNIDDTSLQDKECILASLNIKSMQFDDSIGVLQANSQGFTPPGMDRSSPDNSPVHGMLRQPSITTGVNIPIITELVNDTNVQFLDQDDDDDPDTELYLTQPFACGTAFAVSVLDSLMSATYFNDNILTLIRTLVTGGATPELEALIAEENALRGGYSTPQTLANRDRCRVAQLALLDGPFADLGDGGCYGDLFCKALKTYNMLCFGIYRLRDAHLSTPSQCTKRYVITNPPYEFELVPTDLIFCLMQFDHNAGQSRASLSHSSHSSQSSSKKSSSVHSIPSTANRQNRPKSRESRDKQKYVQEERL

Compound | pKa [1] | Control current [2] [%]
CCCc1ccc(O)c(-c2cc(CCC)ccc2O)c1 | 9.3 | 95.9
CN(C)Cc1cc(Cl)cc(Cc2cc(Cl)cc(CN(C)C)c2O)c1O | 9.6 | 94.7
O=C(Nc1cc(Cl)ccc1O)Nc1cc(Cl)ccc1O | 8.9 | 150
O=C(Nc1cc(Cl)cc(Cl)c1O)Nc1cc(Cl)cc(Cl)c1O | 7.4 | 196
Oc1c(Cl)cc(Cl)cc1Sc1cc(Cl)cc(Cl)c1O [BITHIONOL] | 6.3 | 199
Oc1ccc(Cl)cc1Cc1cc(Cl)ccc1O [DICHLOROPHEN] | 9.3 | 74.3
O=c1[nH]c2cc(C(F)(F)F)ccc2n1-c1cc(Cl)ccc1O | 9.6 | 132
Oc1c(Cl)cc(Cl)c(Cl)c1Cc1c(O)c(Cl)cc(Cl)c1Cl [HEXACHLOROPHENE] | 6.6 | 237
Oc1ccc(F)cc1Cc1cc(F)ccc1O | 9.7 | 83.2
Oc1c(Cl)cccc1Cc1cccc(Cl)c1O | 8.2 | 95.9
O=C(Nc1cccc(C(F)(F)F)c1)Nc1cc(Cl)ccc1O | 9.3 | 124
Oc1ccc(F)cc1Sc1cc(F)ccc1O | 8.4 | 98.8
Oc1c(Br)cc(Br)cc1-c1cc(Br)cc(Br)c1O [BROMOPHENE] | 6.7 | 264
Oc1c(Cl)cc(Cl)cc1Cc1cc(Cl)cc(Cl)c1O | 7.7 | 245
Oc1ccc(Br)cc1-c1cc(Br)ccc1O | 8.6 | 97
